Drawing on ChEMBL document CHEMBL1909046, “DrugMatrix in vitro pharmacology data”, this text covers IC50 and Ki for 18 compounds.

One assay addresses Carbonic anhydrase 2 (Homo sapiens, UniProt P00918). The assay is described as follows: DRUGMATRIX: Carbonic Anhydrase II enzyme inhibition (substrate: 4-Nitrophenyl acetate (4-NPA)). It counts as tissue-based, Erythrocyte. To be noted: erythrocyte; Not Active = under 50% inhibition at 10 µM.
The target of assay [1] is cGMP-specific 3',5'-cyclic phosphodiesterase (Homo sapiens, UniProt O76074). The assay is described as follows: DRUGMATRIX: Phosphodiesterase PDE5 enzyme inhibition (substrate: [3H]cGMP + cGMP). It counts as tissue-based. To be noted: platelet; Not Active = under 50% inhibition at 10 µM.
Assay [2] has as its target Protein kinase C alpha type (Homo sapiens, UniProt P17252). It counts as cell-based. To be noted: sf9.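 Further: inhibition of PKCalpha kinase activity measured in an enzyme assay with histone as the phosphorylation substrate; in other assays of this panel Not Active means under 50% inhibition at 10 µM.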
Assay [3] concerns the target Sigma non-opioid intracellular receptor 1 (Homo sapiens, UniProt Q99720). The assay is described as follows: DRUGMATRIX: Sigma1 radioligand binding (ligand: [3H] Haloperidol). It counts as cell membranes, Jurkat, Membrane. To be noted: Not Active = under 50% inhibition at 10 µM.
A short description of assay [4]: DRUGMATRIX: Glutamate, AMPA radioligand binding (ligand: [3H] AMPA). It counts as cell membranes, Rattus norvegicus, Wistar, Cerebral cortex, Membrane. To be noted: Not Active = under 50% inhibition at 10 µM.
In assay [5] the target is Protein phosphatase 3 catalytic subunit alpha (Homo sapiens, UniProt Q08209). The arrangement: species or system Escherichia coli.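 Further: inhibition of calcineurin (PP2B) enzyme activity, measured with DiFMUP as the substrate; in other assays of this panel Not Active means under 50% inhibition at 10 µM.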
Assay [6] has as its target T1, Amine oxidase [flavin-containing] A (Homo sapiens, UniProt P21397).
T1 sequence (P21397 whole entry): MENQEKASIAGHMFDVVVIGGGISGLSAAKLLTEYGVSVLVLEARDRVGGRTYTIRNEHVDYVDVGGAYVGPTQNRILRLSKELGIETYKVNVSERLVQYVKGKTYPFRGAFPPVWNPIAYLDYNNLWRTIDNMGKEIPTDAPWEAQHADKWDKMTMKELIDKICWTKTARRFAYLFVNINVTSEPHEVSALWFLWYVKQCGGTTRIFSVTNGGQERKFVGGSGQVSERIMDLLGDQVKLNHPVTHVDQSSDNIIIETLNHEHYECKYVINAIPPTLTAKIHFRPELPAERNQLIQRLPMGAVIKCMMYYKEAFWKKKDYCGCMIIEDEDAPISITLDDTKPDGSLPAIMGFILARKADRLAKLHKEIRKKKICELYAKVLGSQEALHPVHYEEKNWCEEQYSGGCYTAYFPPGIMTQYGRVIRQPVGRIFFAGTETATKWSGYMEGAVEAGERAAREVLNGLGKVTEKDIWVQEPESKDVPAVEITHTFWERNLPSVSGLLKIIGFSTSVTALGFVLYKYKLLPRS
The experiment in a line: DRUGMATRIX: Monoamine Oxidase MAO-A enzyme inhibition (substrate: Kynuramine). To be noted: bti-tn-5b1-4; Not Active = under 50% inhibition at 10 µM. The arrangement: species or system BTI-TN-5B1-4.

The next assay concerns the target T2, Leukotriene C4 synthase (Cavia porcellus, UniProt A6XA80).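 Further: enzyme inhibition assay of leukotriene C4 synthase, using LTA4 as the substrate; in other assays of this panel Not Active means under 50% inhibition at 10 µM.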
T2 sequence (A6XA80 whole entry): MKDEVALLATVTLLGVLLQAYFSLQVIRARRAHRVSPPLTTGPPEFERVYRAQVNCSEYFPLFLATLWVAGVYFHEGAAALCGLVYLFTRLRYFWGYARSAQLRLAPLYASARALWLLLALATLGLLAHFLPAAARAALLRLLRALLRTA
It counts as tissue-based, Lung.

Sequence of Sigma non-opioid intracellular receptor 1 (Q99720 whole entry): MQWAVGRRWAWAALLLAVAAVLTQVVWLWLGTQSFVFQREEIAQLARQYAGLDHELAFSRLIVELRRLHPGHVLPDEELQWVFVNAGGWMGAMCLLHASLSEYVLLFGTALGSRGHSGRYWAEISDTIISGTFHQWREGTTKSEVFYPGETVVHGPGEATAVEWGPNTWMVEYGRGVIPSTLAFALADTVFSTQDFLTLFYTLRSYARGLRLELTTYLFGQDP

The IC50 is the concentration needed to halve the response being measured. The term Ki denotes the equilibrium dissociation constant of an inhibitor or competing ligand from its target. Regarding CADMIUM ACETATE, the IC50 entry (at Carbonic anhydrase 2; in assay [1]; in assay [2]; in assay [3] (jurkat); in assay [4]; in assay [5]) was “Not Active” throughout. The IC50 entry (in assay [6]; at Leukotriene C4 synthase) was “Not Active” each time. For the same compound, the Ki entry (on Carbonic anhydrase 2; in assay [1]; in assay [2]; in assay [3] (jurkat); in assay [4]; in assay [5]) was “Not Active” each time. Further, the inhibition constant Ki result (in assay [6]; at Leukotriene C4 synthase) was “Not Active” throughout.
For the compound `COc1cc2c3cc1Oc1cc(ccc1O)C[C@@H]1c4c(cc(OC)c(O)c4Oc4ccc(cc4)C[C@@H]3N(C)CC2)CC[N+]1(C)C.[Cl-]`, the IC50 result (on Carbonic anhydrase 2; in assay [1]; in assay [2]; in assay [3] (jurkat); in assay [4]; in assay [5]) was “Not Active” throughout. Moreover, the IC50 result (in assay [6]; at Leukotriene C4 synthase) was “Not Active” in each case. For the same compound, the Ki entry in assay [4] is “Not Active”.
Turning to `CN(Cc1ccc(C(C)(C)C)cc1)Cc1cccc2ccccc12` [BUTENAFINE], the IC50 result was “Not Active” against Carbonic anhydrase 2; “Not Active” in assay [1]; “Not Active” in assay [2]; 3.95 µM in assay [3] (read-out: IC50); “Not Active” in assay [4]; “Not Active” in assay [5]. Further, the IC50 entry (in assay [6]; at Leukotriene C4 synthase) was “Not Active” in each case. Moreover, the values for the Ki in assay [3] (read-out: Ki) and in assay [4] were 1.66 µM and “Not Active”, respectively.
Regarding `C[C@H](CCC(=O)O)[C@H]1CC[C@H]2[C@@H]3[C@H](O)C[C@@H]4C[C@H](O)CC[C@]4(C)[C@H]3C[C@H](O)[C@]12C` [CHOLIC ACID], the IC50 entry (on Carbonic anhydrase 2; in assay [1]; in assay [2]; in assay [3] (jurkat); in assay [4]; in assay [5]) was “Not Active” each time. Besides, the IC50 result (in assay [6]; on Leukotriene C4 synthase) was “Not Active” each time. In addition, the Ki result in assay [4] is “Not Active”.
As for `CC1=C2C(=CO[C@H](C)[C@H]2C)C(O)=C(C(=O)O)C1=O` [CITRININ], the IC50 entry (against Carbonic anhydrase 2; in assay [1]; in assay [2]; in assay [3] (jurkat); in assay [4]; in assay [5]) was “Not Active” in each case. The 50% inhibitory concentration (IC50) entry (in assay [6]; against Leukotriene C4 synthase) was “Not Active” throughout. The inhibition constant Ki entry in assay [4] was “Not Active”.
For `CCCCc1nc(Cl)c(CO)n1Cc1ccc(-c2ccccc2-c2nnn[nH]2)cc1` [LOSARTAN], the IC50 result (at Carbonic anhydrase 2; in assay [1]; in assay [2]; in assay [3] (jurkat); in assay [4]; in assay [5]) was “Not Active” throughout. For the same compound, the IC50 entry (in assay [6]; against Leukotriene C4 synthase) was “Not Active” in each case. The inhibition constant Ki result in assay [4] was “Not Active”.
On to `Cc1cc(C2CCCCC2)n(O)c(=O)c1` [CICLOPIROX], for which the IC50 entry (at Carbonic anhydrase 2; in assay [1]; in assay [2]; in assay [3] (jurkat); in assay [4]; in assay [5]) was “Not Active” in each case. Further, the IC50 entry (in assay [6]; at Leukotriene C4 synthase) was “Not Active” each time. The Ki entry in assay [4] is on record as “Not Active”.
Regarding `CCCCN1CCCC[C@H]1C(=O)Nc1c(C)cccc1C` [LEVOBUPIVACAINE], the IC50 result (against Carbonic anhydrase 2; in assay [1]; in assay [2]; in assay [3] (jurkat); in assay [4]; in assay [5]) was “Not Active” throughout. Also, the IC50 result (in assay [6]; on Leukotriene C4 synthase) was “Not Active” in each case. Also, in assay [4], the inhibition constant Ki result was “Not Active”.
In the case of `CC[C@@]1(O)C[C@H](O[C@H]2C[C@H](N(C)C)[C@H](O[C@H]3C[C@H](O)[C@H](O[C@H]4CCC(=O)[C@H](C)O4)[C@H](C)O3)[C@H](C)O2)c2c(cc3c(c2O)C(=O)c2c(O)cccc2C3=O)[C@H]1C(=O)OC` [ACLARUBICIN], the IC50 entry (against Carbonic anhydrase 2; in assay [1]; in assay [2]; in assay [3] (jurkat); in assay [4]; in assay [5]) was “Not Active” each time. For the same compound, the IC50 result (in assay [6]; against Leukotriene C4 synthase) was “Not Active” in each case. Also, the Ki entry in assay [4] is “Not Active”.
Consider `CC(=O)O[C@@]12CO[C@@H]1C[C@H](O)[C@@]1(C)C(=O)[C@H](O)C3=C(C)[C@@H](OC(=O)[C@H](O)[C@@H](NC(=O)OC(C)(C)C)c4ccccc4)C[C@@](O)([C@@H](OC(=O)c4ccccc4)[C@H]21)C3(C)C.O.O.O` [DOCETAXEL], for which the IC50 entry (at Carbonic anhydrase 2; in assay [1]; in assay [2]; in assay [3] (jurkat); in assay [4]; in assay [5]) was “Not Active” each time. Moreover, the IC50 entry (in assay [6]; against Leukotriene C4 synthase) was “Not Active” each time. Besides, the Ki entry in assay [4] is given as “Not Active”.
Turning to `N=C(N)NCCN1CCCCCCC1` [GUANETHIDINE], the IC50 entry (on Carbonic anhydrase 2; in assay [1]; in assay [2]; in assay [3] (jurkat); in assay [4]; in assay [5]) was “Not Active” throughout. Besides, the IC50 entry (in assay [6]; on Leukotriene C4 synthase) was “Not Active” throughout. The Ki result in assay [4] was “Not Active”.
As for `CNCCc1ccccn1` [BETAHISTINE], the IC50 result (against Carbonic anhydrase 2; in assay [1]; in assay [2]; in assay [3] (jurkat); in assay [4]; in assay [5]) was “Not Active” throughout. Also, the IC50 result (in assay [6]; at Leukotriene C4 synthase) was “Not Active” throughout. Further, in assay [4], the Ki entry is “Not Active”.
`COc1cc2nc(N3CCN(C(=O)C4COc5ccccc5O4)CC3)nc(N)c2cc1OC` (stereo not given) [DOXAZOSIN]: the IC50 entry (on Carbonic anhydrase 2; in assay [1]; in assay [2]; in assay [3] (jurkat); in assay [4]; in assay [5]) was “Not Active” in each case. Besides, the IC50 result (in assay [6]; at Leukotriene C4 synthase) was “Not Active” throughout. Also, in assay [4], the Ki result is given as “Not Active”.
For the compound `Clc1cccc(Cl)c1NC1=NCCN1` [CLONIDINE], the IC50 result (on Carbonic anhydrase 2; in assay [1]; in assay [2]; in assay [3] (jurkat); in assay [4]; in assay [5]) was “Not Active” each time. Also, the IC50 result (in assay [6]; on Leukotriene C4 synthase) was “Not Active” throughout. Moreover, the Ki entry in assay [4] was “Not Active”.
Consider `C[C@H](CS)C(=O)N1CCC[C@H]1C(=O)O` [CAPTOPRIL], for which the IC50 entry (against Carbonic anhydrase 2; in assay [1]; in assay [2]; in assay [3] (jurkat); in assay [4]; in assay [5]) was “Not Active” each time. Besides, the IC50 result (in assay [6]; on Leukotriene C4 synthase) was “Not Active” each time. Further, in assay [4], the Ki result was “Not Active”.
As to `CC(C)(Oc1ccc(Cl)cc1)C(=O)O` [CLOFIBRIC ACID], the IC50 result (against Carbonic anhydrase 2; in assay [1]; in assay [2]; in assay [3] (jurkat); in assay [4]; in assay [5]) was “Not Active” in each case. The IC50 result (in assay [6]; on Leukotriene C4 synthase) was “Not Active” in each case. For the same compound, the Ki result in assay [4] is recorded as “Not Active”.
Consider `OC(Cn1cncn1)(Cn1cncn1)c1ccc(F)cc1F` [FLUCONAZOLE], for which the concentration for half-maximal inhibition (IC50) result (on Carbonic anhydrase 2; in assay [1]; in assay [2]; in assay [3] (jurkat); in assay [4]; in assay [5]) was “Not Active” each time. Also, the IC50 result (in assay [6]; on Leukotriene C4 synthase) was “Not Active” in each case. For the same compound, in assay [4], the Ki result is given as “Not Active”.
For the compound `O=C1CC[C@@H](N2C(=O)c3ccccc3C2=O)C(=O)N1`, the IC50 result (on Carbonic anhydrase 2; in assay [1]; in assay [2]; in assay [3] (jurkat); in assay [4]; in assay [5]) was “Not Active” in each case. Moreover, the IC50 result (in assay [6]; at Leukotriene C4 synthase) was “Not Active” throughout. The Ki entry in assay [4] is “Not Active”.
